Results as given in patent US7815950B2, “Ketomethionine ketals and derivatives thereof” (Evonik Degussa GmbH, priority 2006, dated 2010).
Where two headings read alike, the source gives them in different places.

Assays:
[1] = ruminants; published in WO 00/28835; cited from earlier work
[2] = European Commission report, 25 Apr. 2003; cited from earlier work
[3] = HMBi applied to a porous support; compared with WO 00/28835; EP 1358805; cited from earlier work
[4] = in vivo; cited from earlier work
[5] = feeding experiments with rodents and poultry; compared with MHA; cited from earlier work

## CSCCC(N)C(=O)OC(C)(C)C (racemic) [D,L-tert-butylmethionine, reference compound]
[1]
  biological value: 80%

## CSCCC1(O)OCC(C)(C)COC1=O (racemic) [Example 4, rac-4,4-dimethyl-7-hydroxy-7-(2-(methylthio)ethyl)-6-oxacaprolactone]
other
  melting point: 109 °C

## CSCCC1(C(=O)O)OCCO1 [Example 2, 2-(2-(methylthio)ethyl)-1,3-dioxolane-2-carboxylic acid]
other
  melting point: 74 °C

## CSCCC12OCC(CO1)OC2=O [Example 5, 4-(2-(methylthio)ethyl)-2,5,8-trioxabicyclo[2.2.2]octan-3-one]
other
  melting point: 39.5 °C

## CSCCC(O)C(=O)OC(C)C (stereo not drawn) [HMBi]
[2]
  absorbed via the rumen wall: approximately 50%
[3]
  biological value: comparable biological value
[1]
  biological value: at least 50%

## CSCCC(O)C(=O)O (stereo not drawn) [MHA, hydroxymethylthiobutyric acid]
[4]
  supplemented MHA that, after absorption in the small intestine, can pass into metabolism: 20-40%

## CSCCC(=O)C(=O)[O-].[Na+] [sodium salt of α-ketomethionine]
[5]
  biological value: significantly above that of MHA
